The values that follow come from ChEMBL document CHEMBL4014304, “New potent and selective αvβ3 integrin ligands: Macrocyclic peptides containing RGD motif synthesized by sortase A-mediated ligation” (Bioorg Med Chem Lett, 2017).

Holding throughout (format): cell-based
The target in assay [1] is Integrin alpha-V/beta-3/alpha-V/beta-5 (Homo sapiens, UniProt P05106+P06756+P18084). Put plainly: Antagonist activity at integrin alphaVbeta3alphaVbeta5 (unknown origin) expressed in SKOV3 cells assessed as reduction in cell adhesion to fibrinogen after 2 hrs by MTT assay.
For a further assay, the target named is Integrin alpha-V/beta-5 (Homo sapiens, UniProt P06756+P18084). The experiment in a line: Antagonist activity at integrin alphaVbeta5 (unknown origin) expressed in HT-29 cells assessed as reduction in cell adhesion to vitronectin after 2 hrs by MTT assay.
The next assay concerns the target Integrin alpha-V/beta-3 (Homo sapiens, UniProt P05106+P06756). The experiment in a line: Antagonist activity at integrin alphaVbeta3 (unknown origin) expressed in HEK293 cells assessed as reduction in cell adhesion to fibrinogen after 2 hrs by MTT assay.
For assay [2], the species on record is Homo sapiens. The experiment in a line: Selectivity ratio of IC50 for integrin alphaVbeta5 (unknown origin) expressed in HT-29 cells to IC50 for integrin alphaVbeta3 (unknown origin) expressed in HEK293 cells.
The species entered for assay [3] is Homo sapiens. Put plainly: Selectivity ratio of IC50 for integrin alphaVbeta5 (unknown origin) expressed in HT-29 cells to IC50 for integrin alphaVbeta3alphaVbeta5 (unknown origin) expressed in SKOV3 cells.

Numbered stars: 1 amine (or outer) side, 2 acyl side, 3 side chain; on linkers, the order of the positions; unused ones are H or OH. Square brackets hold non-standard residues; d marks the D form. Peptide text beside a SMILES is read from it. X1 = C[C@@H](O)[C@H](N[*:1])C(=O)NC(=O)[*:2]

Sequence of Integrin alpha-V/beta-5 (P06756 31-889 limits assumed): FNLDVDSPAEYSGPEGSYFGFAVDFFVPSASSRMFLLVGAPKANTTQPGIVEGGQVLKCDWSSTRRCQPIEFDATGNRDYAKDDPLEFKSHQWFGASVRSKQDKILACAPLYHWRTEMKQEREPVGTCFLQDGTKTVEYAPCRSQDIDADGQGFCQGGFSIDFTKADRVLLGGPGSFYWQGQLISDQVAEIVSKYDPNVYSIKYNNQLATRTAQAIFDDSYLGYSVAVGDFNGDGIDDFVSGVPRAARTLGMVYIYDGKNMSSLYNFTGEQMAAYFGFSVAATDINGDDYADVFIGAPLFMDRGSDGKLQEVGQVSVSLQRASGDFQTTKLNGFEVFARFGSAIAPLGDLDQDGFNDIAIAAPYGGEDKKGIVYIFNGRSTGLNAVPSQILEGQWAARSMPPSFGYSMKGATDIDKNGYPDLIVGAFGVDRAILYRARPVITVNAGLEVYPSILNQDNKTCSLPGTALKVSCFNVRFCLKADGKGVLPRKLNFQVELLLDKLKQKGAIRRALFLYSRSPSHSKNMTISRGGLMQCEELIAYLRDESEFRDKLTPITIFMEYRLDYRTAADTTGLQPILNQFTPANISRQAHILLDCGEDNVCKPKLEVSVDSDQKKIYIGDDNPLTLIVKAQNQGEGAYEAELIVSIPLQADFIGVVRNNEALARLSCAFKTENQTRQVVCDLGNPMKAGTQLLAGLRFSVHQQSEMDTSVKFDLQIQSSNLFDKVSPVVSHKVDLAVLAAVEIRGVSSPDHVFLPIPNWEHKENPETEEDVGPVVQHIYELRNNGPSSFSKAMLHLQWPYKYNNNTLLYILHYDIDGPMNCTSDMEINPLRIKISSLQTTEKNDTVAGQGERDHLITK
Sequence of Integrin alpha-V/beta-5 (P06756 891-1048 limits assumed): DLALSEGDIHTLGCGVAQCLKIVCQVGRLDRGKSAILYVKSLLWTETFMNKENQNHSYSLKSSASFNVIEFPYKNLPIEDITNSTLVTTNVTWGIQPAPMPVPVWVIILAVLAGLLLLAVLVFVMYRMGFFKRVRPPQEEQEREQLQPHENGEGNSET
Sequence of Integrin alpha-V/beta-5 (P18084 24-799 limits assumed): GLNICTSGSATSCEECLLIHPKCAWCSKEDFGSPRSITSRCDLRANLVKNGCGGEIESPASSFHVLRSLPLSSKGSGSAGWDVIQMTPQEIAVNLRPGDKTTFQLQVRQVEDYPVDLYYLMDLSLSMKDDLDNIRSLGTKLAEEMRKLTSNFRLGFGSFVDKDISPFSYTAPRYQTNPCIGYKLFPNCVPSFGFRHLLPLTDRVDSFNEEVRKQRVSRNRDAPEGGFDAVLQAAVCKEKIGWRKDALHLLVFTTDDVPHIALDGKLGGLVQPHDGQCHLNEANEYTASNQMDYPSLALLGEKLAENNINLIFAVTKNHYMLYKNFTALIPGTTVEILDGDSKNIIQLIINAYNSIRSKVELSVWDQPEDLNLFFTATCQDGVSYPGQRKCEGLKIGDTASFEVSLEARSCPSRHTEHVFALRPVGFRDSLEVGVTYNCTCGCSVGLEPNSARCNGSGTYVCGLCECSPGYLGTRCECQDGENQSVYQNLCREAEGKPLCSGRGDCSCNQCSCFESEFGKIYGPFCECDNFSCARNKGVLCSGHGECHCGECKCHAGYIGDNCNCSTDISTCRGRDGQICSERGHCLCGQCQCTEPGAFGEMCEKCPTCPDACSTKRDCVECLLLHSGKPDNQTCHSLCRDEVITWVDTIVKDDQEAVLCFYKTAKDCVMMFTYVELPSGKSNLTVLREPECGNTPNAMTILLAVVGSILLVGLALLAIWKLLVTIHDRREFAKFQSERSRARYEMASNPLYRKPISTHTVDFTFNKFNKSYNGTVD
Sequence of Integrin alpha-V/beta-3/alpha-V/beta-5 (P05106 27-788 limits assumed): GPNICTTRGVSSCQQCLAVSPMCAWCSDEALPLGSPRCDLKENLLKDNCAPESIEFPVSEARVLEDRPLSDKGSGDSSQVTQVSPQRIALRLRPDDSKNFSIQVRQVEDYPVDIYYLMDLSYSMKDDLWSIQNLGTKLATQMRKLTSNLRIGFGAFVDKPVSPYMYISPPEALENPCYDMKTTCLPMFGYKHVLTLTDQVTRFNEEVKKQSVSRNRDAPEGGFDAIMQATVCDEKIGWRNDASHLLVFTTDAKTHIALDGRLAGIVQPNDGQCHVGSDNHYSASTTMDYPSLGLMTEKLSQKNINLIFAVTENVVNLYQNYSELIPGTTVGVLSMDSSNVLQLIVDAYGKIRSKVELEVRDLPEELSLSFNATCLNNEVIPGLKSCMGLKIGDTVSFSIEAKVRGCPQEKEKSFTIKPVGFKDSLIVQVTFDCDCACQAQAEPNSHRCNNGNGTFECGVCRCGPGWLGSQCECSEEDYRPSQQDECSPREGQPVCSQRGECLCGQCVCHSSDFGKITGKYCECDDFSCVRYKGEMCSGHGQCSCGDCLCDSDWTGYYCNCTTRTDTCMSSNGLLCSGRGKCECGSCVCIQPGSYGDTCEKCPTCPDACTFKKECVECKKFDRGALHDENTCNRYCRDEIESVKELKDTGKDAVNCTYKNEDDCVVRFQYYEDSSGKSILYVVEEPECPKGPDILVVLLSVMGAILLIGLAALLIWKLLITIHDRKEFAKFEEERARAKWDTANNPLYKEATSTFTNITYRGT
Sequence of Integrin alpha-V/beta-3/alpha-V/beta-5 (P06756 31-889 limits assumed): as the sequence (P06756 31-889 limits assumed) above
Sequence of Integrin alpha-V/beta-3/alpha-V/beta-5 (P06756 891-1048 limits assumed): as the sequence (P06756 891-1048 limits assumed) above
Sequence of Integrin alpha-V/beta-3/alpha-V/beta-5 (P18084 24-799 limits assumed): as the sequence (P18084 24-799 limits assumed) above
Sequence of Integrin alpha-V/beta-3 (P05106 27-788 limits assumed): as the sequence (P05106 27-788 limits assumed) above
Sequence of Integrin alpha-V/beta-3 (P06756 31-889 limits assumed): as the sequence (P06756 31-889 limits assumed) above
Sequence of Integrin alpha-V/beta-3 (P06756 891-1048 limits assumed): as the sequence (P06756 891-1048 limits assumed) above

As to H-GRGDRGDRGDLPETGGS-OH, the IC50 in assay [1] came to 74 µM; on Integrin alpha-V/beta-5 it was 25 µM; on Integrin alpha-V/beta-3, 152 µM.

H-RGDRGD-OH: the IC50 stood at 753 µM in assay [1], 546 µM at Integrin alpha-V/beta-5 and 619 µM at Integrin alpha-V/beta-3.

Regarding H-GGGGGGGRGDLPETGGS-OH, the IC50 in assay [1] was found to be 102 µM; on Integrin alpha-V/beta-5, 2950 µM; at Integrin alpha-V/beta-3, 171 µM.

`CC(C)C[C@@H]1NC(=O)[C@H](CC(=O)O)NC(=O)CNC(=O)[C@H](CCCNC(=N)N)NC(=O)CNC(=O)CNC(=O)CNC(=O)CNC(=O)CNC(=O)CNC(=O)CNC(=O)NC(=O)[C@H]([C@@H](C)O)NC(=O)[C@H](CCC(=O)O)NC(=O)[C@@H]2CCCN2C1=O` (cyclo(RGDLPE[X1]GGGGGGG)): the IC50 in assay [1] was 19 µM; at Integrin alpha-V/beta-5, 522 µM; on Integrin alpha-V/beta-3 it was 7.2 µM.

For H-GGGGRGDRGDLPETGGS-OH, the figures for the Ratio IC50 in the assay filed under Homo sapiens [2] and in the assay filed under Homo sapiens [3] were greater than 50 and greater than 400, respectively. The IC50 in assay [1] stood at 4 µM; at Integrin alpha-V/beta-5, 1730 µM; on Integrin alpha-V/beta-3, 33 µM.

For `CC(C)C[C@@H]1NC(=O)[C@H](CC(=O)O)NC(=O)CNC(=O)[C@H](CCCNC(=N)N)NC(=O)[C@H](CC(=O)O)NC(=O)CNC(=O)[C@H](CCCNC(=N)N)NC(=O)[C@H](CC(=O)O)NC(=O)CNC(=O)[C@H](CCCNC(=N)N)NC(=O)CNC(=O)[C@H]([C@@H](C)O)NC(=O)[C@H](CCC(=O)O)NC(=O)[C@@H]2CCCN2C1=O` (cyclo(RGDLPETGRGDRGD)), the IC50 came to 136 µM in assay [1], 380 µM at Integrin alpha-V/beta-5 and 257 µM at Integrin alpha-V/beta-3.

On to `CC(C)C[C@@H]1NC(=O)[C@H](CC(=O)O)NC(=O)CNC(=O)[C@H](CCCNC(=N)N)NC(=O)[C@H](CC(=O)O)NC(=O)CNC(=O)[C@H](CCCNC(=N)N)NC(=O)CNC(=O)CNC(=O)CNC(=O)CNC(=O)[C@H]([C@@H](C)O)NC(=O)[C@H](CCC(=O)O)NC(=O)[C@@H]2CCCN2C1=O` (cyclo(RGDLPETGGGGRGD)), for which the results for the IC50 (in assay [1]; at Integrin alpha-V/beta-5; on Integrin alpha-V/beta-3) were 26 µM, 26 µM and 48.8 µM, respectively.
